{"source": "patent US20230167406A1", "about": "“COMPOSITIONS AND METHODS OF PROMOTING MYELINATION” (The Children's Medical Center Corporation, priority 2020, published 2023)", "key": {"[1]": {"system": "proliferating OPCs in injured optic nerves", "experiment": "In vivo compound screening for OPC differentiation (BrdU+/CC1+ cells) after optic nerve crush", "design": "species or system mouse", "details": "wild type C57BL/6 mice; for number of BrdU+ and CC1+ double positive cells (OPC differentiation) in injured optic nerves: compound once daily for 4 weeks from day 1 post optic nerve crush, BrdU daily days 4-10; for pro-differentiation effect compared with the other screened compounds: 4 week treatment after optic nerve crush"}, "[2]": {"system": "OPCs and their progenies in injured optic nerves", "experiment": "OPC lineage tracing (CC1/Oligo1 staining of RTM+ cells) in PDGFRα-CreER/iRTM mice after optic nerve crush", "type": "in vivo, mouse", "from_the_text": "To trace the progenies of OPCs, a different reporter mouse line was utilized, namely PDGFRα-CreER (Kang et al., Neuron 68, 668-681, 2010) crossed with Rosa26-STOP-Tomato mice, or PDGFRα-CreER/iRTM mice (Arenkiel et al., 2011). Upon tamoxifen administration, Cre expression is induced in PDGFRα^+ OPCs, leading to RTM expression not only in these OPCs but also their differentiated progenies. To monitor their differentiation, two well-documented markers were used, namely CC1 and Oligo1. CC1 is a marker for all differentiated cells from OPCs. The translocation of Oligo1 from the nucleus to the cytoplasm has been implicated as a hallmark of late differentiation into myelinating oligodendrocytes. Therefore, with these immunohistochemistry assessments, these cells could be separated into three stages: un-differentiated OPCs (CC1^− and nuclear Oligo1), early differentiated OPCs (CC1+ and nuclear Oligo1) and mature oligodendrocytes (CC1^+ and cytoplasmic Oligo1) (FIG. 111).\nImmediately prior to optic nerve crush, tamoxifen was injected into PDGFRα-CreER/iRTM mice in order to label pre-existing OPCs (Young et al., Neuron 77, 873-885, 2013). Then, the fate of labeled OPCs was examined by immunohistochemistry with anti-CC1 and anti-Oligo1 at 4 weeks after injury (FIG. 1I).\nAs the majority of OPC proliferation occurs in the first week after injury (FIG. 1), it was hypothesized that a delayed PLX3397 treatment at 2-4 weeks after injury could bypass their inhibition on proliferation, permitting assessment of its effects on OPC differentiation. To do this, a separate experiment was performed in which PLX3397 was administered from 2 to 4 weeks after injury in PDGFRα-CreER:iRTM mice as used in FIGS. 1G-1M, 3L.\nFor PDGFRα-CreER mice, Tamoxifen (100 mg/kg, p.o.) was administered for 5 days right before optic nerve crush. […] Pexidartinib (PLX 3397) was mixed in food chow at 290 mg/kg by LabDiet laboratory animal nutrition."}, "[3]": {"system": "regenerated axons in injured optic nerves", "experiment": "Electron microscopy of myelination of regenerated axons in injured optic nerves", "type": "in vivo, mouse", "details": "4 weeks after injury; for regenerated axons that became myelinated: Montelukast dpi1-28 and/or PLX3397 dpi15-28", "method": "To do this, AAVs expressing osteopontin/IGF1/CNTF were injected into the vitreous bodies of PDGFRα-CreER:iRTM mice to activate the intrinsic regenerative ability of RGCs and optic nerve injury was performed in 2 weeks. These mice were then treated with Montelukast (for 4 weeks from dpi1 to dpi28) and/or PLX3397 (for two weeks during dpi 15-28).\nMice were perfused with 4% paraformaldehyde with 2.5% glutaraldehyde in 0.1 M sodium cacodylate buffer, pH 7.2. Optic nerves were dissected and fixed in the same fixative solution overnight. Samples were then processed by the Harvard EM core based on the following procedure: nerves were rinsed in PBS, postfixed in 1% OsO4 in PBS for 1 h, dehydrated in a graded ethanol series, infiltrated with propylene oxide, and embedded in Epon. Semithin sections were stained with toluidine blue, and ultrathin sections were stained with lead citrate. Ultrathin sections were taken under JEOL 1200EX-80 kV electron microscope. The number of myelinated axons per nerve was analyzed in ultrathin sections at magnification 3,000× to 20,000×."}, "[4]": {"system": "activated microglia in injured optic nerves", "experiment": "Microglia depletion in injured optic nerves (CD68 immunoreactivity)", "type": "in vivo, mouse", "details": "systemic application (food chow)", "text": "FIG. 3G comprises representative images of optic nerves, from adult mice 2 weeks after unilateral optic nerve crush injury and with or without PLX3397 treatment, stained with antibodies against CD68. Scale bar: 40 μm.\nFIG. 3H is a graph quantifying the CD68 immunoreactivity signal. […] mice per group. Scale bar: 40 μm. *, **, *** p<0.05, 0.01, 0.001, respectively.\n(§1) Thus, it appears that microglia activation is required for injury-induced OPC proliferation.\nFor PDGFRα-CreER mice, Tamoxifen (100 mg/kg, p.o.) was administered for 5 days right before optic nerve crush. For OPC proliferation assays, BrdU (100 mg/kg, i.p.) was injected at 3 hours before sample collection. […]\n(§2) Cryosections (12-μm thick) were permeabilized and blocked in blocking buffer (0.5% Triton X-100 and 5% normal goat serum in PBS) for 1 h at room temperature and overlaid with primary antibodies overnight at 4° C. […] For each biological sample, 3-5 sections of each optic nerve were imaged under 10× or 20×objectives for quantification. Positive cell numbers were then quantified manually using the Plugins/Analyze/Cell Counter function in ImageJ software. For fluorescent intensity analysis, the images were first converted to 8-bit depth in ImageJ software and then, the mean intensity value was calculated by the build-in function: Analyze/Measure."}, "[5]": {"system": "OPCs in injured optic nerves", "experiment": "OPC proliferation by BrdU/GFP/Olig2 labeling in PDGFRα-H2B-GFP mice", "type": "in vivo, mouse", "details": "PLX3397 from 7 days before crush, examined 14 days after injury", "procedure": "FIG. 3I is a schematic of experiments to assess OPC proliferation with the treatment of PLX3397 (PLX) or its vehicle control (Vec) in PDGFRα-H2B-GFP mice. […]\nas §1\nFor PDGFRα-CreER mice, Tamoxifen (100 mg/kg, p.o.) was administered for 5 days right before optic nerve crush. For OPC proliferation assays, BrdU (100 mg/kg, i.p.) was injected at 3 hours before sample collection. For drug screening assays, BrdU was injected daily from day 4 to day 10 post optic nerve crush. Each compound or the corresponding Vehicle was administered once daily for 4 weeks started from day 1 post optic nerve crush (Table 2). […]\nas §2"}, "[6]": {"system": "OPCs distal to the optic nerve injury", "experiment": "TNFα inhibitor treatment after optic nerve injury (BrdU/CC1/Olig2 staining, lineage reporter mice)", "type": "in vivo, mouse", "text": "The morphology is very distinct from other treatments, such as GPR17 antagonist treatment (FIG. 5E)."}, "[7]": {"details": "PDGFRα-CreER/iRTM mice, Montelukast treatment for 4 weeks"}, "[8]": {"details": "PDGFRα-CreER:iRTM mice, delayed treatment from 2 to 4 weeks after injury"}}, "note": "“Also recorded” adds a separate entry of the source. Structures can show the parent of a compound that is named as a salt."}
{"molecule": "C=C(c1ccc(C(=O)O)cc1)c1cc2c(cc1C)C(C)(C)CCC2(C)C", "note": "[Bexarotene]", "values": [{"measurement": "number of BrdU+ and CC1+ double positive cells (OPC differentiation) in injured optic nerves", "setting": "[1]", "result": "increased CC1^+ cells, albeit the increase did not reach statistical differences"}]}
{"molecule": "CC(C)(O)c1ccccc1CC[C@@H](SCC1(CC(=O)O)CC1)c1cccc(/C=C/c2ccc3ccc(Cl)cc3n2)c1", "note": "[Montelukast]", "values": [{"measurement": "pro-differentiation effect compared with the other screened compounds", "setting": "[1]", "result": "strongest effect"}, {"measurement": "pro-differentiation effect compared with the other screened compounds", "setting": "[1]; listed as montelukast", "result": "strongest"}, {"measurement": "number of BrdU+ and CC1+ double positive cells (OPC differentiation) in injured optic nerves", "setting": "[1]", "result": "significantly increased"}, {"measurement": "proportion of CC1+RTM+ cells with nuclear, but not cytoplasmic, Oligo1 immunoreactivity", "setting": "[2]; [7]", "result": 77, "unit": "%"}, {"measurement": "total RTM+ cell numbers", "setting": "[2]; [7]", "result": "increased"}, {"measurement": "proportion of RFP+ (RTM+) cells that became CC1+", "setting": "[2]; PDGFRα-CreER/iRTM mice, Montelukast treatment for 4 weeks after optic nerve injury, 12% in vehicle-treated mice", "result": 64, "unit": "%"}, {"measurement": "thickness of myelin structures", "setting": "[3]", "result": "much thinner than those after PLX treatment"}, {"measurement": "regenerated axons that became myelinated", "setting": "[3]", "result": "about 20%"}]}
{"molecule": "FC(F)(F)c1ccc(CNc2ccc(Cc3c[nH]c4ncc(Cl)cc34)cn2)cn1", "note": "[PLX3397, Pexidartinib]", "values": [{"measurement": "CC1+ cells", "setting": "[2]; [8]", "result": "increased"}, {"measurement": "proportion of CC1+RTM+ cells expressing cytoplasmic Oligo1", "setting": "[2]; [8]", "result": 78, "unit": "%"}, {"measurement": "depletion of microglia in vivo (CD68)", "setting": "[4]", "result": "depleted; also recorded: specifically deplete microglia"}, {"measurement": "total numbers of OPCs", "setting": "[5]", "result": "profoundly reduced"}, {"measurement": "regenerated axons that became myelinated", "setting": "[3]", "result": "about 20%"}]}
{"molecule": "O=C(Nc1cccc2c(=O)cc(-c3nn[nH]n3)oc12)c1ccc(OCCCCc2ccccc2)cc1", "note": "[Pranlukast]", "values": [{"measurement": "number of BrdU+ and CC1+ double positive cells (OPC differentiation) in injured optic nerves", "setting": "[1]", "result": "increased OPC differentiation but did not reach statistical significance"}]}
{"molecule": "O=C(O)CCC(=O)O.O=C(O[C@H]1CN2CCC1CC2)N1CCc2ccccc2[C@@H]1c1ccccc1", "note": "[Solifenacin, Solifenacin succinate]", "values": [{"measurement": "number of BrdU+ and CC1+ double positive cells (OPC differentiation) in injured optic nerves", "setting": "[1]", "result": "significantly increased"}, {"measurement": "number of BrdU+ and CC1+ double positive cells (OPC differentiation) in injured optic nerves", "setting": "[1]; listed as solifenacin", "result": "significantly increased OPC differentiation"}]}
{"molecule": "O=C1CCC(N2C(=O)c3ccccc3C2=O)C(=O)N1", "note": "(stereo not shown) [Thalidomide]", "values": [{"measurement": "differentiation of OPCs in lineage reporter mice", "setting": "[6]; PDGFRα-CreER/iRTM lineage reporter mice, 2 to 4 weeks post-injury", "result": "OPCs differentiated into mature myelinating oligodendrocytes"}, {"measurement": "BrdU+/CC1+/Olig2+ cells distal to the injury", "setting": "[6]; administered from 2 weeks to 4 weeks post-injury", "result": "robust increase"}]}
{"molecule": "CN1C2CCC1CC(OC(c1ccccc1)c1ccccc1)C2", "note": "(stereo not shown) [benztropine mesylate, Benztropine mesylate]", "values": [{"measurement": "number of BrdU+ and CC1+ double positive cells (OPC differentiation) in injured optic nerves", "setting": "[1]", "result": "significantly increased"}, {"measurement": "number of BrdU+ and CC1+ double positive cells (OPC differentiation) in injured optic nerves", "setting": "[1]; listed as benztropine", "result": "significantly increased OPC differentiation"}]}
{"molecule": "CN1CCC[C@@H]1CCO[C@](C)(c1ccccc1)c1ccc(Cl)cc1.O=C(O)/C=C/C(=O)O", "note": "[clemastine, Clemastine fumarate]", "values": [{"measurement": "number of BrdU+ and CC1+ double positive cells (OPC differentiation) in injured optic nerves", "setting": "[1]", "result": "increased CC1^+ cells, albeit the increase did not reach statistical differences"}]}
